Source: ChEMBL document CHEMBL4715697, “Synthesis and biological activity of benzamide DNA minor groove binders” (2016)

Columns and labels:
Type in all cases: functional
MOLT-4 = assay: Growth inhibition of human MOLT-4 cells assessed as cell growth at 1 uM incubated for 48 hrs by sulforhodamine B assay relative to control; settings: read-out: Activity
A549 = assay: Growth inhibition of human A549/ATCC cells assessed as cell growth at 0.1 uM incubated for 48 hrs by sulforhodamine B assay relative to control; settings: read-out: Activity
OVCAR-8 = assay: Growth inhibition of human OVCAR-8 cells incubated for 48 hrs by sulforhodamine B assay
MDA-MB-231 [1] = assay: Growth inhibition of human MDA-MB-231 cells assessed as cell growth at 0.1 uM incubated for 48 hrs by sulforhodamine B assay relative to control; settings: read-out: Activity
UACC-257 [2] = assay: Growth inhibition of human UACC-257 cells assessed as cell growth at 100 uM incubated for 48 hrs by sulforhodamine B assay relative to control; settings: read-out: Activity
IGROV-1 = assay: Growth inhibition of human IGROV-1 cells assessed as cell growth at 0.1 uM incubated for 48 hrs by sulforhodamine B assay relative to control; settings: read-out: Activity
COLO 205 = assay: Growth inhibition of human COLO 205 cells assessed as cell growth at 1 uM incubated for 48 hrs by sulforhodamine B assay relative to control; settings: read-out: Activity
HCC 2998 = assay: Growth inhibition of human HCC 2998 cells assessed as cell growth at 0.01 uM incubated for 48 hrs by sulforhodamine B assay relative to control; settings: read-out: Activity
NCI-H522 [3] = assay: Growth inhibition of human NCI-H522 cells assessed as cell growth at 0.1 uM incubated for 48 hrs by sulforhodamine B assay relative to control; settings: read-out: Activity
KM12 = assay: Growth inhibition of human KM12 cells incubated for 48 hrs by sulforhodamine B assay
RXF 393 = assay: Growth inhibition of human RXF 393 cells incubated for 48 hrs by sulforhodamine B assay
Hs-578T = assay: Growth inhibition of human Hs-578T cells assessed as cell growth at 0.1 uM incubated for 48 hrs by sulforhodamine B assay relative to control; settings: read-out: Activity
UACC-257 [4] = assay: Growth inhibition of human UACC-257 cells assessed as cell growth at 1 uM incubated for 48 hrs by sulforhodamine B assay relative to control; settings: read-out: Activity
SK-OV-3 = assay: Growth inhibition of human SK-OV-3 cells assessed as cell growth at 100 uM incubated for 48 hrs by sulforhodamine B assay relative to control; settings: read-out: Activity
MCF7 = assay: Growth inhibition of human MCF7 cells assessed as cell growth at 100 uM incubated for 48 hrs by sulforhodamine B assay relative to control; settings: read-out: Activity
M14 = assay: Growth inhibition of human M14 cells assessed as cell growth at 100 uM incubated for 48 hrs by sulforhodamine B assay relative to control; settings: read-out: Activity
SF-268 = assay: Growth inhibition of human SF-268 cells assessed as cell growth at 0.1 uM incubated for 48 hrs by sulforhodamine B assay relative to control; settings: read-out: Activity
NCI-H460 = assay: Growth inhibition of human NCI-H460 cells incubated for 48 hrs by sulforhodamine B assay
OVCAR-5 [5] = assay: Growth inhibition of human OVCAR-5 cells incubated for 48 hrs by sulforhodamine B assay
T47D = assay: Growth inhibition of human T47D cells incubated for 48 hrs by sulforhodamine B assay
NCI-H23 = assay: Growth inhibition of human NCI-H23 cells assessed as cell growth at 1 uM incubated for 48 hrs by sulforhodamine B assay relative to control; settings: read-out: Activity
MDA-MB-231 [6] = assay: Growth inhibition of human MDA-MB-231 cells assessed as cell growth at 0.01 uM incubated for 48 hrs by sulforhodamine B assay relative to control; settings: read-out: Activity
PC-3 = assay: Growth inhibition of human PC-3 cells assessed as cell growth at 0.01 uM incubated for 48 hrs by sulforhodamine B assay relative to control; settings: read-out: Activity
RPMI-8226 = assay: Growth inhibition of human RPMI-8226 cells assessed as cell growth at 1 uM incubated for 48 hrs by sulforhodamine B assay relative to control; settings: read-out: Activity
HL-60(TB) = assay: Growth inhibition of human HL-60(TB) cells assessed as cell growth at 0.01 uM incubated for 48 hrs by sulforhodamine B assay relative to control; settings: read-out: Activity
SK-MEL-2 = assay: Growth inhibition of human SK-MEL-2 cells incubated for 48 hrs by sulforhodamine B assay
ACHN = assay: Growth inhibition of human ACHN cells assessed as cell growth at 0.1 uM incubated for 48 hrs by sulforhodamine B assay relative to control; settings: read-out: Activity
HCT-15 = assay: Growth inhibition of human HCT-15 cells assessed as cell growth at 0.1 uM incubated for 48 hrs by sulforhodamine B assay relative to control; settings: read-out: Activity
TK-10 = assay: Growth inhibition of human TK-10 cells assessed as cell growth at 0.1 uM incubated for 48 hrs by sulforhodamine B assay relative to control; settings: read-out: Activity
OVCAR-5 [7] = assay: Growth inhibition of human OVCAR-5 cells assessed as cell growth at 100 uM incubated for 48 hrs by sulforhodamine B assay relative to control; settings: read-out: Activity
LOX IMVI = assay: Growth inhibition of human LOX IMVI cells assessed as cell growth at 1 uM incubated for 48 hrs by sulforhodamine B assay relative to control; settings: read-out: Activity
NCI-H522 [8] = assay: Growth inhibition of human NCI-H522 cells assessed as cell growth at 0.01 uM incubated for 48 hrs by sulforhodamine B assay relative to control; settings: read-out: Activity
CAKI-1 = assay: Growth inhibition of human CAKI-1 cells assessed as cell growth at 0.01 uM incubated for 48 hrs by sulforhodamine B assay relative to control; settings: read-out: Activity
OVCAR-3 = assay: Growth inhibition of human OVCAR-3 cells assessed as cell growth at 0.01 uM incubated for 48 hrs by sulforhodamine B assay relative to control; settings: read-out: Activity
[9] = read-out: LC50 (the source's name)
[10] = read-out: pLC50 (the source's name) (converted)

CC(=O)Nc1cc(CO[Si](C)(C)C(C)(C)C)cc(NC(=O)c2ccc(C(=O)Nc3cccc(NC(=O)CCCN(C)C)c3)cc2)c1
96%: growth at 1 µM (NCI-H23)
109%: growth at 1 µM (COLO 205)
32%: growth at 100 µM (MCF7)
75%: growth at 100 µM (M14)
79%: growth at 100 µM (OVCAR-5 [7])
95%: growth at 0.1 µM (MDA-MB-231 [1])
121%: growth at 0.1 µM (Hs-578T)
81%: growth at 100 µM (UACC-257 [2])
> 75.9 µM: GI50 (OVCAR-8; read-out: pGI50 (converted)) | CC50 (OVCAR-8; [10]) | TGI (OVCAR-8; read-out: pTGI) | GI50 (KM12; read-out: pGI50 (converted)) | CC50 (KM12; [10]) | TGI (KM12; read-out: pTGI) | GI50 (RXF 393; read-out: pGI50 (converted)) | CC50 (RXF 393; [10]) | TGI (RXF 393; read-out: pTGI) | GI50 (NCI-H460; read-out: pGI50 (converted)) | CC50 (NCI-H460; [10]) | TGI (NCI-H460; read-out: pTGI) | GI50 (OVCAR-5 [5]; read-out: pGI50 (converted)) | LC50 (OVCAR-5 [5]; read-out: pLC50 (converted)) | TGI (OVCAR-5 [5]; read-out: pTGI) | GI50 (T47D; read-out: pGI50 (converted)) | CC50 (T47D; [10]) | TGI (T47D; read-out: pTGI) | GI50 (SK-MEL-2; read-out: pGI50 (converted)) | CC50 (SK-MEL-2; [10]) | TGI (SK-MEL-2; read-out: pTGI)
99%: growth at 0.1 µM (A549) | growth at 0.1 µM (TK-10)
> 75 µM: GI50 (OVCAR-8; read-out: GI50) | CC50 (OVCAR-8; [9]) | TGI (OVCAR-8; read-out: TGI) | GI50 (KM12; read-out: GI50) | CC50 (KM12; [9]) | TGI (KM12; read-out: TGI) | GI50 (RXF 393; read-out: GI50) | CC50 (RXF 393; [9]) | TGI (RXF 393; read-out: TGI) | GI50 (NCI-H460; read-out: GI50) | CC50 (NCI-H460; [9]) | TGI (NCI-H460; read-out: TGI) | GI50 (OVCAR-5 [5]; read-out: GI50) | LC50 (OVCAR-5 [5]; read-out: LC50) | TGI (OVCAR-5 [5]; read-out: TGI) | GI50 (T47D; read-out: GI50) | CC50 (T47D; [9]) | TGI (T47D; read-out: TGI) | GI50 (SK-MEL-2; read-out: GI50) | CC50 (SK-MEL-2; [9]) | TGI (SK-MEL-2; read-out: TGI)
102%: growth at 0.01 µM (MDA-MB-231 [6]) | growth at 0.01 µM (HL-60(TB))
92%: growth at 0.01 µM (CAKI-1)
103%: growth at 0.1 µM (IGROV-1)
100%: growth at 0.1 µM (SF-268) | growth at 0.01 µM (PC-3) | growth at 0.01 µM (OVCAR-3)
94%: growth at 1 µM (LOX IMVI)
89%: growth at 1 µM (UACC-257 [4]) | growth at 0.01 µM (NCI-H522 [8])
91%: growth at 1 µM (MOLT-4) | growth at 0.1 µM (NCI-H522 [3]) | growth at 0.1 µM (HCT-15)
97%: growth at 0.1 µM (ACHN)
93%: growth at 100 µM (SK-OV-3)
98%: growth at 0.01 µM (HCC 2998)
110%: growth at 1 µM (RPMI-8226)
